Where two headings read alike, the source gives them in different places.
Legend:
Type in all cases: cell-based
[1] = tested on: OCI-AMI.2 cells; assay: Cell viability, MTS assay
[2] = tested on: MV-4-11 cells; assay: Cell viability in cell lines with constitutive activation of STAT5 (Almar Blue)
Experimental: (§1) To determine whether STAT5 inhbitors could be cytotoxic in cell lines that have constitutive activation of STAT5, the cell lines K562 and MV-4-11 were cultured at concentration 1×10^5, to insure that the cells are at the exponential stage of growth, and treated with the different synthesized molecules at concentrations of 10, 20 and 40 μM. Viability were determined using Almar Blue (Invitrogen) in 96-well plate over 3 consecutive days. Fluorescence was quantified using Spectra Max M5 (Molecular Devices).

[3] = tested on: K562 cells; assay: as above
Experimental: as §1

[4] = tested on: HL60 cells; assay: Cell viability, MTS assay; details: Homo sapiens, HL-60, HL60, 72 hours
Experimental: (§2) To further test activity of these molecules, a whole-cell study involving cancer lines with known abherrant STAT3 expression was conducted. These human cell lines, including prostate cancer (DU145), breast cancer (MDA468), and promyelocytic leukemia (HL-60) were treated with the peptidomimetics and incubated for 72 hours. Disruption of cell viability was measured by MTS assay and IC50 values for the potential inhibitors was determined. OriginPro 8 (Northampton, Mass.) was used to evaluate EC50 using the dose response curve defined as follows:
(§3) [formula] where y is the fraction of death, x is the log of drug concentration. A2 is the top asymptote, A1 is the bottom asymptote, logx0 is the center of the curve, and p is the hill slope.

[5] = tested on: MDA-468 cells; assay: Cell viability, MTS assay; details: Homo sapiens, MDA-468, 72 hours
Experimental: as §2, §3

[6] = tested on: DU-145 cells; assay: Cell viability, MTS assay; details: Homo sapiens, DU-145, 72 hours
Experimental: as §2, §3

Cc1cc(C)c(S(=O)(=O)N(C)CC(=O)N(Cc2ccc(C3CCCCC3)cc2)c2ccc(C(=O)O)c(O)c2)c(C)c1 [Compound 45b, 4-(N-(4-cyclohexylbenzyl)-2-(N,2,4,6-tetramethylphenylsulfonamido)acetamido)-2-hydroxy-benzoic acid]
IC50 [1]: 65.4 ± 13 µM | IC50 ([2]; Homo sapiens, MV4-11): > 80 µM | IC50 ([3]; Homo sapiens): 80 ± 18 µM | IC50 [4]: 40.4 ± 20.2 µM | IC50 [5]: 22.6 ± 8.3 µM | IC50 [6]: 44.5 ± 16 µM

Cc1ccc(S(=O)(=O)N(CC(=O)N(Cc2ccc(C3CCCCC3)cc2)c2ccc(C(=O)O)c(O)c2)C(=O)OC(C)(C)C)cc1 [SF-1-087]
IC50 [2]: 51 ± 7 µM | IC50 [3]: > 80 µM

COC(=O)c1cccc(-c2ccc(-c3ccc(CN(C(=O)CN(C)S(=O)(=O)c4ccc(C)cc4)c4ccc(C(=O)O)c(O)c4)cc3)cc2)c1 [Compound 27na]
IC50 [1]: 35.1 ± 19.4 µM | IC50 ([2]; Homo sapiens, MV4-11): 24 ± 2 µM | IC50 ([3]; Homo sapiens): 24 ± 3 µM | IC50 [4]: 33.2 ± 9.2 µM | IC50 [5]: 29 ± 2.3 µM | IC50 [6]: 81.5 ± 8 µM

Cc1ccc(S(=O)(=O)N(CC(=O)N(Cc2ccccc2)c2ccc(C(=O)O)c(O)c2)C(=O)OC(C)(C)C)cc1 [SF-1-088]
IC50 [2]: > 80 µM | IC50 [3]: 77 ± 5 µM

CN(CC(=O)N(Cc1ccc(C2CCCCC2)cc1)c1ccc(C(=O)O)c(O)c1)S(=O)(=O)c1ccc(-c2ccccc2)cc1 [Compound 45c, 4-(N-(4-cyclohexylbenzyl)-2-(N-methylbiphenyl-4-ylsulfonamido)acetamido)-2-hydroxy-benzoic acid]
IC50 [1]: 95.4 ± 33.7 µM | IC50 ([2]; Homo sapiens, MV4-11): 17 ± 1 µM | IC50 ([3]; Homo sapiens): 42 ± 16 µM | IC50 [4]: 74.8 ± 28.2 µM | IC50 [5]: 47.4 ± 6.2 µM | IC50 [6]: 80 ± 31.6 µM

Reference: US10196373B2, “Substituted 2-hydroxy-4-(2-(phenylsulfonamido)acetamido)benzoic acid analogs as inhibitors of STAT protein” (University of Central Florida Research Foundation, Inc., priority 2010, dated 2019)
